# From paper PMC8516330 (The AAPS Journal, 2021)
# Test: Encapsulation efficiency of liposomes and lipodisks by RP-HPLC
# Conditions: for Change of EE in lipodisks compared with liposomes: curcumin D/L 0.01, acyclovir D/L 0.03; for EE% (encapsulation efficiency), D/L 0.1: D/L ratio 0.1 (w/w), N = 3
Compound,Change of EE in lipodisks compared with liposomes,"Encapsulation efficiency, liposomes D/L 0.03 ([…], D/L ratio 0.03, passive loading)","EE% (encapsulation efficiency), D/L 0.1 ([…])","Encapsulation efficiency, lipodisks D/L 0.03 (lipodisks (62% DSPE-PEG2000), D/L ratio 0.03)","Encapsulation efficiency, lipodisks D/L 0.01 (D/L ratio 0.01)","Encapsulation efficiency, liposomes D/L 0.01 (liposomes, D/L ratio 0.01)"
"Nc1nc2c(ncn2COCCO)c(=O)[nH]1 [Acyclovir, acyclovir]",did not significantly increase,,,,,
"C[C@@H]1C[C@H]2[C@@H]3CCC4=CC(=O)C=C[C@]4(C)[C@@]3(F)[C@@H](O)C[C@]2(C)[C@@]1(O)C(=O)CO [Dexamethasone, dexamethasone]",,2.3%,1.49%,9.7%,27.46%,
"COc1cc(/C=C/C(=O)CC(=O)/C=C/c2ccc(O)c(OC)c2)ccc1O [Curcumin, curcumin]",remained constant,,11.41%,,~ 82.4%,~ 82.4%
